Literature values, collected in PMC12737022, “Evaluations of Sex Differences in Dosimetry in Rats Following Perfluorohexanesulfonamide (PFHxSA) Oral Exposure” (Toxics, 2025).

Tests used:
[1] = parameters: method as in PMID 31078680; settings: cited from earlier work; for Liver partitioning values: male rats
[2] = parameters: method as in PMID 40710967; settings: SD rats following PFHxSA administration; cited from earlier work
[3] = parameters: method as in PMID 37756184; settings: bariatric surgery patients; cited from earlier work

Structure (SMILES)	Share of the PFAS detected following dosing [2]	Liver partitioning values [1]	other results
O=C(O)C(F)(F)C(F)(F)C(F)(F)F [PFBA]	–	–	Liver partitioning summary values ([1]; across both sexes): 0.16–0.44
O=C(O)C1OC(NS(=O)(=O)C(F)(F)C(F)(F)C(F)(F)C(F)(F)C(F)(F)C(F)(F)F)C(O)C(O)C1O (stereo not drawn) [PFHxSA-glucuronide]	less than 3%	–	–
O=C(O)C(F)(F)C(F)(F)C(F)(F)C(F)(F)C(F)(F)C(F)(F)C(F)(F)F [PFOA, perfluorooctanoic acid, reference compound]	–	1.5 to 10.9	Human liver/plasma partitioning Kp [3]: 0.26
O=S(=O)(O)C(F)(F)C(F)(F)C(F)(F)C(F)(F)C(F)(F)C(F)(F)C(F)(F)C(F)(F)F [PFOS, perflurooctanesulfonic acid]	–	1.5 to 10.9	–
O=S(O)C(F)(F)C(F)(F)C(F)(F)C(F)(F)C(F)(F)C(F)(F)F [perfluorohexanesulfinic acid]	less than 3%	–	–
